Laboratory results taken from patent US20250066286A1, “COMPOSITIONS OF (Z)-ENDOXIFEN AND METHODS OF ENRICHMENT THEREOF” (Atossa Therapeutics, Inc., priority 2022, published 2025).
Read-outs that look alike come from different tables or passages of the source.

Assays:
[1] = Thermal treatment of Form IV at 90° C. and 50 mbar (XRPD); type: physicochemical
Procedure: To confirm the DSC results, Form IV deterioration was subject to thermal treatment by incubation for 1 hour at 90° C. and 50 mbar, storage for 18 hours at room temperature, and a second incubation for 3.5 hours 90° C. and 50 mbar. XRPD analysis was performed on the sample following the 1 hour incubation at 90° C. and 50 mbar, after the 18 hours of storage at room temperature, and after the final 3.5 hour incubation 90° C. and 50 mbar.

[2] = Stability at various temperatures and relative humidities, seven days (XRPD); type: physicochemical; conditions: 7 days
Procedure: The stabilities of the polymorphs were also assessed at various temperatures and relative humidities. These analyses were performed by storing 20 mg of polymorph samples for seven days at: (1) 25° C. and 100% relative humidity, (2) 40° C. and 75% relative humidity, (3) 25° C. and 60% relative humidity, and (4) at 60° C. and 75% relative humidity. XRPD was collected on the samples following these incubations and compared to XRPD of the samples prior to storage.

[3] = Storage stability of polymorphic forms at room temperature in a sealed vial (XRPD time course); type: physicochemical; conditions: room temperature
Procedure: Form I samples were collected for XR-PD analysis following 0, 7, and 42 days of storage, the results of which are shown in FIG. 10.
The stability of polymorphic Form IV was evaluated over 7 days of storage at room temperature in a sealed vial. Portions of the Form IV samples were collected for XRPD analysis following 0 (Form IV), 3 (Form IV-3D3-storage), and 7 days (Form IV-7D3-storage) of storage, the results of which are shown in FIG. 14.
The stability of polymorphic Form IV was also evaluated following crystallization from a room temperature 2-propanol/THF 95/5 (v/v) solvent system containing 40 mg/ml (Z)-endoxifen. XPRD was collected immediately after recovery and following 15 days storage at room temperature in a sealed vial. FIG. 15 provides the resultant XRPD patterns following 15 days storage (Form IV-2PR/THF-15D-storage) and 0 days storage (Form IV-2PR/THF-0D-storage), as well as an XRPD spectrum of Form IV (Form IV) obtained from 2-propanol recrystallization.
Since the room temperature evaporation in acetone yielded a mixture of polymorphic Form I and Form IV XRPD patterns with a very intense unassigned signal at 16.1° 2θ, the sample was re-measured following 7 days storage in a sealed vial. From top to bottom, FIG. 16 provides XRPD patterns of the acetone-generated polymorphs following 7 (EVRT-ACT-7D-storage) and 0 days of storage (EVRT-ACT-0D-storage), a Form IV spectrum (Form IV), and a Form I (Form I) spectrum, respectively.
Form XVII was further assessed after 3 days storage in a sealed vial at room temperature.
Form XVIII was further reassessed by XRPD following 3 and 7 days storage at room temperature in a sealed vial. The data from these analyses are summarized in FIG. 24, which (from top to bottom) provides the sample following 7 days storage (Form XVIII-7D-storage), the sample following 3 days storage (Form XVIII-3D-storage), and the sample immediately following crystallization (Form XVIII).
Form XIX room temperature stability was evaluated with XRPD. XRPD of a Form XIX sample immediately following crystallization (Form XIX) and following 7 days of storage (Form XIX-7D-storage) are shown in FIG. 26.
The stability of polymorphic Form V was over 10 days of storage at room temperature in a sealed vial. XR-PD was performed following 0, 3, and 10 days storage.
To evaluate Form VI stability, XRPD spectra of a Form VI sample were collected following 0, 3, and 14 days of room temperature storage in a sealed vial. The resulting XRPD patterns of the sample following 0 (Form VI), 3 (Form VI-3D-storage), and 14 days storage (Form VI-14D-storage) are shown in FIG. 30.
The stability of polymorphic Form VII was evaluated over 7 days of storage at room temperature in a sealed vial. Portions of the Form VII samples were collected for XRPD analysis over 7 days of storage, the results of which are shown in FIG. 32.
Form VIII stability over 7 days storage in a sealed vial at room temperature was evaluated with XRPD.
The stability of Form IX generated by precipitation from an ethyl acetate/heptane solvent system (Form IX Recrystallization (1)) was evaluated over 7 days of storage at room temperature. Portions of the Form IX sample were collected following 0 and 7 days of storage in a sealed vial and analyzed by XRPD analysis to identify possible changes in the polymorph.
Form IX stability was separately characterized for crystals generated through the addition of (Z)-endoxifen saturated ethyl acetate to heptane (Form IX Recrystallization (2)), which yielded higher crystallinity Form IX than was afforded by heptane addition to (Z)-endoxifen saturated ethyl acetate.
Form IX stability was further evaluated for crystals generated by precipitation from an acetone/butyl methyl ether (acetone/BME) solvent/antisolvent mixture (Form IX Recrystallization (4)). Portions of the Form IX sample were collected following 0 and 5 days of storage in a sealed vial at room temperature and compared to reference XRPD patterns of Forms VII and IX. […]

[4] = Mechanical stability: grinding and kneading by ball milling (XRPD); type: physicochemical
Procedure: Stability tests were performed on mixtures of Form I and Form IV; Form I and Form VII; and Form I, Form IV, and Form VII. In a first mechanical stability test, the polymorphs were analyzed by XRPD following 10 minutes of grinding by ball milling at 30 Hz. In a second mechanical stability test, the polymorphs were analyzed by XRPD following 10 minutes of kneading by ball milling at 30 Hz in the presence of a catalytic amount of 2-propanol (2 μl).

[5] = Thermogravimetric analysis (TGA), degradation; type: physicochemical
Procedure: The TGA profile of Form I is shown in the top panel of FIG. 12 with the heat-flow profile in the middle panel of FIG. 12, and the first derivative of the TGA profile in the bottom pane of FIG. 12. […] A weight loss of 0.2% was detected between 140° C. and 180° C., potentially ascribable to solvent release. Degradation of Form I took place above 270° C. The heat-flow profile included two main peaks around 50° C. and 160° C. The first derivative of the TGA profile indicated a greatest decline in the TGA profile occurred around 400° C., and that weight loss occurred around 320° C.

[6] = Slurries with amorphous (Z)-endoxifen (XRPD); type: physicochemical; conditions: for Polymorphic form recovered (XRPD): 22 days stirring at room temperature
Procedure: Further slurry experiments were performed utilizing amorphous (Z)-endoxifen as an input. 20 mg of amorphous (Z)-endoxifen was suspended in 200 μl of various solvent mixtures. Following 22 days of stirring at room temperature, solid (Z)-endoxifen was recovered from the slurries during centrifugation at 4000 rpm for 3 minutes with a nylon filter (0.22 μm).

[7] = cited from earlier work

CC/C(=C(\c1ccc(O)cc1)c1ccc(OCCNC)cc1)c1ccccc1 [Form IV, (Z)-endoxifen]
XRPD pattern after thermal treatment ([1]; after 1 hour at 90° C. and 50 mbar): Form IV with traces of Form I | XRPD pattern after thermal treatment ([1]; after final 3.5 hour treatment at 90° C. and 50 mbar (following 1 hour at 90° C. and 18 hours at room temperature)): Form IV with traces of Form I | XRPD pattern after storage ([2]; 25° C. and 100% relative humidity): Form I with trace of Form IV | XRPD pattern after storage ([2]; 40° C. and 75% relative humidity): Form I with minor traces of Form IV | XRPD change on storage ([3]; 7 days, sealed vial): stable under ambient conditions | XRPD change on storage ([3]; 15 days, sealed vial, sample crystallized from 2-propanol/THF 95/5 (v/v)): maintained a Form IV XRPD pattern following 15 days storage, its XRPD spectrum also exhibited a new signal at 16.1° 2θ | XRPD pattern after mechanical grinding ([4]; 10 minutes ball milling at 30 Hz): Form I with a mild signal at 4.8° 20 ascribable to Form IV | XRPD pattern after kneading ([4]; 10 minutes ball milling at 30 Hz with catalytic 2-propanol (2 μl)): mixture of Form I and Form IV | Degradation temperature (TGA) [5]: above 270 °C | Degradation temperature (TGA) ([5]; sample from scaled-up crystallization): above 270 °C

CC/C(=C(\c1ccc(O)cc1)c1ccc(OCCNC)cc1)c1ccccc1 [amorphous (Z)-endoxifen, (Z)-endoxifen]
Output Main phase [phase] ([6]; SLRT: acetone/tetrahydrofuran 90/10, 100 mg/mL, RT, 22 d, amorphous input): Form I | Polymorphic form recovered (XRPD) ([6]; acetone/tetrahydrofuran slurry): Form I with additional unassigned peaks | Polymorphic form recovered (XRPD) ([6]; ethyl acetate/heptane slurry): Form IX | Polymorphic form recovered (XRPD) ([6]; one of the 2-propanol/tetrahydrofuran slurries): Form IV | XRPD change on storage ([3]; 18 days): stable and does not convert into other polymorphic forms

CC/C(=C(\c1ccccc1)c1ccc(OCCN(C)C)cc1)c1ccccc1 [tamoxifen, (Z)-2-[4-(1,2-diphenyl-1-butenyl)phenoxy]-N,N-dimethylethanamine]
Terminal elimination half-life ([7]; in vivo): 120 to 170 h | Peak concentration time ([7]; post-dose): approximately 5 hours | Reported therapeutic levels of plasma tamoxifen ([7]; subjects dosed with 20 mg of oral tamoxifen): ≥ 30 nM
